Measured values published in patent US11911628B2, “Electrostatic drug delivery” (NANO HESGARSAZAN SALAMAT ARYA INCUBATION CENTER FOR MEDICAL …, priority 2019, dated 2024).
“Also recorded” adds a separate entry of the source.

Test system: MC4L2 mice tumor
Test: MC4L2 mice tumor treated with drug with or without electrostatic field, tumor followed by sonography
Format: in vivo
Conditions: for reduction in tumor volume: without electrostatic field
Method: Here, three injection periods of Cisplatin were carried out every 3 days for a group of mice having a MC4L2 mice tumor as an example of triple-positive breast cancer. About 20 mg/kg of Cisplatin was applied for a Control sample with a MC4L2 mice tumor without applying an electrostatic field. In each period, about 5 mg/kg of Cisplatin was applied for a sample mouse No. 1 with a MC4L2 mice tumor, and then followed by applying an electrostatic field with an intensity in a range of −60 V to −120 V according to exemplary method 100 or exemplary method 110, described hereinabove, utilizing a conductive patch similar to electrically conductive element 304 on mice skin near the MC4L2 tumor site, and applying direct current (DC) electrostatic field utilizing a Van de Graaff device.
All sonography images were taken after about 10 days of treatments, and all drug injections were done every about 3 days.

SMILES	tumor after treatment (sonography) (about 5 mg/kg Cisplatin per period, then DC electrostatic field -60 V to -120 V via conductive patch, three periods every 3 days)	reduction in tumor volume (about 20 mg/kg Cisplatin, injections every 3 days, sonography)	tumor after treatment (sonography) (about 1 mg/kg Doxorubicin per period, then DC electrostatic field 60 V to 120 V via conductive patch, four periods every 3 days)	reduction in tumor volume (about 10 mg/kg Doxorubicin, sonography after about 10 days)
N.N.[Cl][Pt][Cl] [Cisplatin]	no observable trace of tumor; also recorded: removed completely	about 60%		
COc1cccc2c1C(=O)c1c(O)c3c(c(O)c1C2=O)C[C@@](O)(C(=O)CO)C[C@@H]3O[C@H]1C[C@H](N)[C@H](O)[C@H](C)O1 [Doxorubicin]			no observable trace of tumor; also recorded: removed completely	about 75%
